Test results: patent publication US20210255193A1, “LYSINE REACTIVE PROBES AND USES THEREOF” (The Scripps Research Institute, priority 2017, published 2021)

Tests used:
Assay in all cases: direct labeling of recombinantly expressed proteins by gel-based ABPP (WT vs lysine mutant)
Assay type in all cases: binding
Sin3a = molecular target: T1, Sin3a (Homo sapiens, UniProt Q96ST3); conditions: Sin3a K155, KR mutant; 10 μM probe, 1 h
T1 construct: expressed in transfected cells; host or cells: HEK 293T
T1 sequence (Q96ST3 1-400): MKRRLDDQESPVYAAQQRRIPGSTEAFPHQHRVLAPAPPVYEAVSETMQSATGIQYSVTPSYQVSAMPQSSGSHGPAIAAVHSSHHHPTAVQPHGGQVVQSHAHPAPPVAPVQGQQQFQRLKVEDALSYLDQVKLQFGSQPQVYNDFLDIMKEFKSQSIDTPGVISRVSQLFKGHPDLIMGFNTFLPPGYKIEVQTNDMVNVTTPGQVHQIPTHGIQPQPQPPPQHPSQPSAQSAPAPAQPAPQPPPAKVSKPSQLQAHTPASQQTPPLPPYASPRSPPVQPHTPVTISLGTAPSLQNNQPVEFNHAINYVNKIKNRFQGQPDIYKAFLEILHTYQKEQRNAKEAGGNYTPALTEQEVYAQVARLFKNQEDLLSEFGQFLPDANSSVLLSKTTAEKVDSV
Source text: (§1) Subcloning and mutagenesis. Unless noted below, genes were amplified from cDNA prepared from low passage HEK 293T cells using the Ribozol RNA extraction reagent (Amresco) and the iScript Reverse Transcription Supermix kit (Bio-Rad). For the following proteins cDNA clones were used for amplification instead: PFKP (5180268, Dharmacon), HK1 (BC008730, transomic), SIN3A (BC137098, transomic), G6PD (BC000337, transomic) and TGIF1 (BC031268, transomic). Mouse CARM1 in pFLAG-CMV-6c was a kind gift from the Mowen lab (TSRI). NUDT2 was obtained as synthesized gene (IDT). DNA was amplified with custom forward and reverse primers using phusion polymerase (NEB, M0530S), digested with the indicated restriction enzyme and ligated into pFLAG-CMV-6c or pRK5 with the appropriate affinity tag. Lysine mutants were generated using QuikChange site-directed mutagenesis using Phusion® High-Fidelity DNA Polymerase and primers containing the desired mutations and their respective complements. The cloning of TTR and its K35A mutant has been described in Choi et al., “Chemoselective small molecules that covalently modify one lysine in a non-enzyme protein in plasma,” Nat. Chem. Biol. 6, 133-139 (2010). TTR was expressed in E. coli and purified as described. For gel-based experiments 1 μM TTR was added into 1 mg ml^−1 soluble MDA-MB-231 lysate.
(§2) Recombinant expression of proteins by transient transfection. HEK 293T cells were grown to 50% confluency in 10 ml DMEM supplemented with 10% fetal bovine serum (FBS), penicillin, streptomycin and glutamine in 10 cm tissue culture dishes. 3 μg of DNA was diluted in 500 μL DMEM and 30 μL of PEI (MW 40,000, 1 mg ml^−1, Polysciences) were added. The mixture was incubated at room temperature for 30 min and added dropwise to the cells. Cells were grown for 48 h at 37° C. with 5% CO2. Cells were washed with cold PBS, scraped with cold PBS and cell pellets were isolated by centrifugation (1,400 g, 3 min, 4° C.), and stored at −80° C. until use. Cell pellets were resuspended in PBS, lysed by sonication and fractionated (100,000 g, 45 min) to yield soluble and membrane fractions. The soluble fraction was adjusted to a final protein concentration of 1 mg ml^−1 for gel-based ABPP experiments.
(§3) Direct labeling of recombinantly expressed proteins by gel-based ABPP. 50 μL of soluble HEK 293T proteome (1 mg ml^−1) expressing the respective protein (WT or KR mutant) or transfected with an empty vector were treated with 10 μM of the indicated probe for 1 h at room temperature. The samples were analyzed as described in the previous section. For quantification of relative labeling of the different protein variants, the intensity of labeling was determined by quantifying the integrated optical intensity of the bands using ImageLab 5.2.1 software (BioRad).

PMVK = molecular target: T2, PMVK (Homo sapiens, UniProt Q15126); conditions: PMVK K48, KR mutant; 10 μM probe, 1 h
T2 construct: expressed in transfected cells; host or cells: HEK 293T
T2 sequence (Q15126 1-192): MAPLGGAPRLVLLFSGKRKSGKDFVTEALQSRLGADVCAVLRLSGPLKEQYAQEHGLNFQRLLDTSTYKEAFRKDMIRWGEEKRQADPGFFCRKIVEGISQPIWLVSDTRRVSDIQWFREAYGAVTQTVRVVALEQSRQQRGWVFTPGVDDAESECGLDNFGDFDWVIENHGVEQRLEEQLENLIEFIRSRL
Source text: as §1, §2, §3

HDHD3 = molecular target: T3, HDHD3 (Homo sapiens, UniProt Q9BSH5); conditions: HDHD3 K15, KR mutant; 10 μM probe, 1 h
T3 construct: Flag; expressed in transfected cells; host or cells: HEK 293T
T3 sequence (Q9BSH5 1-251): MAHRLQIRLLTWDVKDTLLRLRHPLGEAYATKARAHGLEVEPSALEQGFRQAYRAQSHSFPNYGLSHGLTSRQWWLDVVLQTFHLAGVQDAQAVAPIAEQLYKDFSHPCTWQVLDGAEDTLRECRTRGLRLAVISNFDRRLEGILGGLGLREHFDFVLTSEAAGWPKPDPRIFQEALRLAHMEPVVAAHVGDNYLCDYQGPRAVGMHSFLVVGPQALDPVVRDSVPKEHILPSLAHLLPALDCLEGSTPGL
Source text: as §1, §2, §3

Row | Structure (SMILES) | labeling of WT vs mutant protein by probe (Sin3a) | labeling of WT vs mutant protein by probe (PMVK) | labeling of WT vs mutant protein by probe (HDHD3)
1 | C#CCCC(=O)Oc1c(F)c(F)c(S(=O)(=O)[O-])c(F)c1F.[Na+] [probe 1, reference compound] | PD (the WT labeled more than the mutant (>2x difference quantified)) | HD (the WT labeled more than the mutant (>4x difference quantified)) | HD (the WT labeled more than the mutant (>4x difference quantified))
2 | C#CCCC(=O)Oc1c(F)c(F)c(F)c(F)c1F [probe 6, Pentafluorophenyl 4-pentynoate] | HD (the WT labeled more than the mutant (>4x difference quantified)) | ND (the WT did not label more than the mutant (<2x difference quantified)) | HD (the WT labeled more than the mutant (>4x difference quantified))
3 | C#Cc1ccc(C(=O)Oc2ccccc2[N+](=O)[O-])cc1 [probe 10, 2-Nitrophenyl 4-ethynylbenzoate] | HD (the WT labeled more than the mutant (>4x difference quantified)) | ND (the WT did not label more than the mutant (<2x difference quantified)) | HD (the WT labeled more than the mutant (>4x difference quantified))
4 | C#Cc1ccc(C(=O)Oc2c(F)c(F)cc(F)c2F)cc1 [probe 12, 2,3,5,6-Tetrafluorophenyl 4-ethynylbenzoate] | HD (the WT labeled more than the mutant (>4x difference quantified)) | ND (the WT did not label more than the mutant (<2x difference quantified)) | HD (the WT labeled more than the mutant (>4x difference quantified))
5 | C#Cc1ccc(C(=O)Oc2c(F)c(F)c(F)c(F)c2F)cc1 [probe 13, Pentafluorophenyl 4-ethynylbenzoate] | HD (the WT labeled more than the mutant (>4x difference quantified)) | ND (the WT did not label more than the mutant (<2x difference quantified)) | HD (the WT labeled more than the mutant (>4x difference quantified))
6 | Cc1cc(C)n2c1C=C1C=CC(CCC(=O)Oc3c(F)c(F)c(S(=O)(=O)[O-])c(F)c3F)=[N+]1[B-]2(F)F.[Na+] [probe 18, reference compound] | HD (the WT labeled more than the mutant (>4x difference quantified)) | HD (the WT labeled more than the mutant (>4x difference quantified)) | HD (the WT labeled more than the mutant (>4x difference quantified))
